This assay has as its system P388 leukemia ip, CD2F1 mice, survival T/C. Put plainly: NCI In Vivo Anticancer Drug Screen. Data for tumor model P388 Leukemia (intraperitoneal) in CD2F1 (CDF1) mice. As to conditions: endpoint: median survival time, higher = longer survival. In short, it runs like this:
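Mice carrying the transplanted tumor received test compound or vehicle. Survival was recorded in each group, and the value is the treated-group measurement divided by that of the vehicle-treated control group.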

The mark [1] stands for this setting: dose: 50.0 mg/kg/injection, schedule: Q01DX005 (ip), vehicle: saline with Tween-80.
[2] abbreviates: dose: 100.0 mg/kg/injection, schedule: Q01DX005 (ip), vehicle: saline with Tween-80.
Setting [3] is: dose: 100.0 mg/kg/injection, schedule: Q04DX002 (ip), vehicle: saline with Tween-80.
[4] abbreviates: dose: 200.0 mg/kg/injection, schedule: Q04DX002 (ip), vehicle: saline with Tween-80.
Where [5] appears, read: dose: 400.0 mg/kg/injection, schedule: Q04DX002 (ip), vehicle: saline with Tween-80.
[6] abbreviates: dose: 100.0 mg/kg/injection, schedule: Q01DX001 (ip), vehicle: saline with Tween-80.
The mark [7] stands for this setting: dose: 200.0 mg/kg/injection, schedule: Q01DX001 (ip), vehicle: saline with Tween-80.
The mark [8] stands for this setting: dose: 400.0 mg/kg/injection, schedule: Q01DX001 (ip), vehicle: saline with Tween-80.
Where [9] appears, read: dose: 100.0 mg/kg/injection, schedule: Q04DX003 (ip), vehicle: Klucel (hydroxypropylcellulose) (HPC).
[10] abbreviates: dose: 200.0 mg/kg/injection, schedule: Q04DX003 (ip), vehicle: Klucel (hydroxypropylcellulose) (HPC).
Setting [11] is: dose: 400.0 mg/kg/injection, schedule: Q04DX003 (ip), vehicle: Klucel (hydroxypropylcellulose) (HPC).

Where “and” joins values, the source holds several entries; their conditions need not be identical. Identical values can stand only once. Toxic doses and inconclusive results are not listed.

With `CC(=O)OCC12CCC(C)=CC1OC1C(N3CCOCC3)C(O)C2(C)C12CO2` (stereo not drawn), the T/C is, setting by setting: (dose: 0.62 mg/kg/injection, schedule: Q04DX002 (ip), vehicle: water) 123 % of control; (dose: 1.25 mg/kg/injection, schedule: Q04DX002 (ip), vehicle: water) 123 % of control; (dose: 2.5 mg/kg/injection, schedule: Q04DX002 (ip), vehicle: water) 123 % of control.

With `Cn1c2ccccc2c(=Nc2ccc(S(=O)(=O)N=C(N)N)cc2)c2ccccc21`, the T/C under setting [1] was 106 % of control and the T/C under setting [2] was 96 % of control.

As to `O=[N+]([O-])c1ccc(Oc2ccccc2[N+](=O)[O-])nc1`, the T/C (dose: 6.25 mg/kg/injection, schedule: Q01DX009 (ip), vehicle: Klucel (hydroxypropylcellulose) (HPC)) was 106 % of control; the T/C (dose: 12.5 mg/kg/injection, schedule: Q01DX009 (ip), vehicle: Klucel (hydroxypropylcellulose) (HPC)) was 105 % of control; the T/C (dose: 25.0 mg/kg/injection, schedule: Q01DX009 (ip), vehicle: Klucel (hydroxypropylcellulose) (HPC)) was 103 % of control.

As to `NC(=Nc1ccccc1)N(c1ccccc1)c1nc(=S)ss1`, the T/C was 104 % of control under setting [3], 93 % of control under setting [4] and 87 % of control under setting [5].

For `O=C(O)CCC(CCC(=O)O)(C(=O)O)C(=O)O`, the T/C by setting is: (dose: 60.0 mg/kg/injection, schedule: Q01DX005 (ip), vehicle: saline) 96 % of control; (dose: 120.0 mg/kg/injection, schedule: Q01DX005 (ip), vehicle: saline) 99 % of control.

As for `CC(=O)OC1CCC2(C)C(=CCC3C2CCC2(C)C3CC3C(c4ccccc4)=NC(c4ccccc4)C32C(C)=O)C1` (stereo not drawn), the T/C is, setting by setting: under setting [6], 93 % of control; under setting [3], 108 % of control; under setting [7], 91 % of control; under setting [4], 100 % of control; under setting [8], 90 % of control; under setting [5], 105 % of control.

As to `C=C(C)C12OC3(CCCCCCCCC)OC1C1C4OC4(CO)C(O)C4(O)C(=O)C(C)=CC4C1(O3)C(C)C2OC(C)=O` (stereo not drawn), the T/C is 101 % of control (dose: 12.5 micrograms/kg/injection, schedule: Q01DX009 (ip), vehicle: saline + alcohol); 104 % of control (dose: 25.0 micrograms/kg/injection, schedule: Q01DX009 (ip), vehicle: saline + alcohol); 104 % of control (dose: 50.0 micrograms/kg/injection, schedule: Q01DX009 (ip), vehicle: saline + alcohol); 104 % of control (dose: 100.0 micrograms/kg/injection, schedule: Q01DX009 (ip), vehicle: saline + alcohol); 123 % of control (dose: 200.0 micrograms/kg/injection, schedule: Q01DX009 (ip), vehicle: saline + alcohol).

On to `O=C(N/N=C/c1cc(Cl)cc(Cl)c1[O-])c1ccccc1.O=C(N/N=C/c1cc(Cl)cc(Cl)c1[O-])c1ccccc1.[Mn+2]`, for which the T/C runs as follows: under setting [6], 98 % of control; under setting [7], 99 % of control; under setting [8], 105 % of control.

As to `c1ccc(-c2cnn3c(-c4ccccc4)cnnc23)cc1`, the T/C runs as follows: (dose: 50.0 mg/kg/injection, schedule: Q01DX005 (ip), vehicle: Klucel (hydroxypropylcellulose) (HPC)) 99 % of control; (dose: 100.0 mg/kg/injection, schedule: Q01DX005 (ip), vehicle: Klucel (hydroxypropylcellulose) (HPC)) 99 % of control; (dose: 200.0 mg/kg/injection, schedule: Q01DX005 (ip), vehicle: Klucel (hydroxypropylcellulose) (HPC)) 99 % of control.

As for `CC[C@]1(O)CN2CCc3c([nH]c4ccccc34)[C@@](C(=O)OC)(c3cc4c(cc3OC)N(C)[C@H]3[C@@](O)(C(=O)OC)[C@H](OC(C)=O)[C@]5(CC)C=CCN6CC[C@]43[C@@H]65)C[C@H](C2=O)[C@H]1O`, the T/C (dose: 4.0 mg/kg/injection, schedule: Q01DX001 (ip), vehicle: water) is 115 % of control; the T/C (dose: 8.0 mg/kg/injection, schedule: Q01DX001 (ip), vehicle: water) is 117 % of control; the T/C (dose: 16.0 mg/kg/injection, schedule: Q01DX001 (ip), vehicle: water) is 115 % of control and 124 % of control; the T/C (dose: 128.0 mg/kg/injection, schedule: Q01DX001 (ip), vehicle: water) is 150 % of control.

`COC(=O)c1cc(=O)c2c(ccc3oc(=O)ccc32)[nH]1`: the T/C was 88 % of control under setting [1]; 88 % of control under setting [2]; 90 % of control (dose: 200.0 mg/kg/injection, schedule: Q01DX005 (ip), vehicle: saline with Tween-80).

In the case of `COC(=O)CC1(C(=O)OC)C2=C(c3ccccc3CC2)N2CCCC21` (stereo not drawn), the T/C is 110 % of control (dose: 11.25 mg/kg/injection, schedule: Q01DX009 (ip), vehicle: Klucel (hydroxypropylcellulose) (HPC)); 110 % of control (dose: 22.5 mg/kg/injection, schedule: Q01DX009 (ip), vehicle: Klucel (hydroxypropylcellulose) (HPC)); 102 % of control (dose: 45.0 mg/kg/injection, schedule: Q01DX009 (ip), vehicle: Klucel (hydroxypropylcellulose) (HPC)); 112 % of control (dose: 90.0 mg/kg/injection, schedule: Q01DX009 (ip), vehicle: Klucel (hydroxypropylcellulose) (HPC)).

Regarding `CN1c2ccccc2SC1(C)CCC(=O)O` (stereo not drawn), the T/C is 105 % of control (dose: 60.0 mg/kg/injection, schedule: Q01DX005 (ip), vehicle: Klucel (hydroxypropylcellulose) (HPC)) and 104 % of control (dose: 120.0 mg/kg/injection, schedule: Q01DX005 (ip), vehicle: Klucel (hydroxypropylcellulose) (HPC)).

As to `CC(CCl)N(CCCl)Cc1cccc(Nc2ncnc3nc[nH]c23)c1` (stereo not drawn), the T/C by setting is: (dose: 0.13 mg/kg/injection, schedule: Q01DX009 (ip), vehicle: saline) 118 % of control; (dose: 0.15 mg/kg/injection, schedule: Q04DX003 (ip), vehicle: saline) 104 % of control; (dose: 0.22 mg/kg/injection, schedule: Q04DX003 (ip), vehicle: saline) 109 % of control; (dose: 0.33 mg/kg/injection, schedule: Q04DX003 (ip), vehicle: saline) 118 % of control; (dose: 1.3 mg/kg/injection, schedule: Q01DX009 (ip), vehicle: saline sonified) 154 % of control; (dose: 2.0 mg/kg/injection, schedule: Q01DX009 (ip), vehicle: saline sonified) 181 % of control. The T/C (dose: 3.0 mg/kg/injection, schedule: Q01DX009 (ip), vehicle: saline sonified) was 172 % of control.

As to `C/C(C#N)=C1/Nc2ccccc2NC1=O`, the T/C (dose: 25.0 mg/kg/injection, schedule: Q01DX009 (ip), vehicle: distilled water + Tween-80 + alcohol) was 95 % of control; the T/C (dose: 50.0 mg/kg/injection, schedule: Q01DX009 (ip), vehicle: distilled water + Tween-80 + alcohol) was 88 % of control and 92 % of control; the T/C (dose: 100.0 mg/kg/injection, schedule: Q01DX009 (ip), vehicle: distilled water + Tween-80 + alcohol) was 91 % of control; the T/C (dose: 200.0 mg/kg/injection, schedule: Q01DX009 (ip), vehicle: distilled water + Tween-80 + alcohol) was 100 % of control.

With `O=C1NN2CCN=C2c2ncccc21`, the T/C runs as follows: (dose: 60.0 mg/kg/injection, schedule: Q01DX005 (ip), vehicle: saline with Tween-80) 104 % of control; (dose: 120.0 mg/kg/injection, schedule: Q01DX005 (ip), vehicle: saline with Tween-80) 94 % of control; (dose: 240.0 mg/kg/injection, schedule: Q01DX005 (ip), vehicle: saline with Tween-80) 87 % of control.

For `C=CCSc1nc2ccc(N=Cc3ccccc3O)cc2s1`, the T/C under setting [9] is 88 % of control, the T/C under setting [10] was 91 % of control and the T/C under setting [11] is 92 % of control.

`CN(c1ccccc1)P(=O)(N1CC1)N1CC1`: the T/C is 200 % of control (dose: 12.5 mg/kg/injection, schedule: Q01DX009 (ip), vehicle: saline sonified); 160 % of control and 195 % of control (dose: 25.0 mg/kg/injection, schedule: Q04DX003 (ip), vehicle: saline with Tween-80); 186 % of control (dose: 37.5 mg/kg/injection, schedule: Q04DX003 (ip), vehicle: saline with Tween-80).

Turning to `Nc1nnnn1NC(=O)c1ccccc1`, the T/C under setting [9] is 97 % of control, the T/C under setting [10] was 102 % of control and the T/C under setting [11] is 98 % of control.

Take `Cc1nc(C(=O)O)c(C(=O)O)[nH]1`: the T/C reads like this: (dose: 100.0 mg/kg/injection, schedule: Q01DX009 (ip), vehicle: saline sonified) 90 % of control; (dose: 200.0 mg/kg/injection, schedule: Q01DX009 (ip), vehicle: saline sonified) 100 % of control.

The record behind these values is PubChem BioAssay AID330 (DTP/NCI, 2004).
